Marks after values point to notes of the source that are not given here.
B1: Collagen-III: extracellular matrix (ECM) control from Becton Dickinson Labware (protein, UniProt P02461 154-1221, looked up)
Collagen alpha-1(III) chain: QYDSYDVKSGVAVGGLAGYPGPAGPPGPPGPPGTSGHPGSPGSPGYQGPPGEPGQAGPSGPPGPPGAIGPSGPAGKDGESGRPGRPGERGLPGPPGIKGPAGIPGFPGMKGHRGFDGRNGEKGETGAPGLKGENGLPGENGAPGPMGPRGAPGERGRPGLPGAAGARGNDGARGSDGQPGPPGPPGTAGFPGSPGAKGEVGPAGSPGSNGAPGQRGEPGPQGHAGAQGPPGPPGINGSPGGKGEMGPAGIPGAPGLMGARGPPGPAGANGAPGLRGGAGEPGKNGAKGEPGPRGERGEAGIPGVPGAKGEDGKDGSPGEPGANGLPGAAGERGAPGFRGPAGPNGIPGEKGPAGERGAPGPAGPRGAAGEPGRDGVPGGPGMRGMPGSPGGPGSDGKPGPPGSQGESGRPGPPGPSGPRGQPGVMGFPGPKGNDGAPGKNGERGGPGGPGPQGPPGKNGETGPQGPPGPTGPGGDKGDTGPPGPQGLQGLPGTGGPPGENGKPGEPGPKGDAGAPGAPGGKGDAGAPGERGPPGLAGAPGLRGGAGPPGPEGGKGAAGPPGPPGAAGTPGLQGMPGERGGLGSPGPKGDKGEPGGPGADGVPGKDGPRGPTGPIGPPGPAGQPGDKGEGGAPGLPGIAGPRGSPGERGETGPPGPAGFPGAPGQNGEPGGKGERGAPGEKGEGGPPGVAGPPGGSGPAGPPGPQGVKGERGSPGGPGAAGFPGARGLPGPPGSNGNPGPPGPSGSPGKDGPPGPAGNTGAPGSPGVSGPKGDAGQPGEKGSPGAQGPPGAPGPLGIAGITGARGLAGPPGMPGPRGSPGPQGVKGESGKPGANGLSGERGPPGPQGLPGLAGTAGEPGRDGNPGSDGLPGRDGSPGGKGDRGENGSPGAPGAPGHPGPPGPVGPAGKSGDRGESGPAGPAGAPGPAGSRGAPGPQGPRGDKGETGERGAAGIKGHRGFPGNPGAPGSPGPAGQQGAIGSPGPAGPRGPVGPSGPPGKDGTSGHPGPIGPPGPRGNRGERGSEGSPGHPGQPGPPGPPGAPGPCCGGVGAAAIAGIGGEKAGGFAPYYG

System: MC3T3 cells
Experiment: Oxygen biosensor assay of adherence and growth of MC3T3 cells on peptide-coated wells
Type: cell-based, murine
Details: for Abs at 590 nm (relative oxygen consumption), MDL-400 Library / relative oxygen consumption (Absorbance at 590 nm) / Abs at 590 nm (relative oxygen consumption), Controls: 86 hour time point; for Abs at 590 nm (relative oxygen consumption), MDL-400 Library: single peptide, 50 µl of 1 mM stock dried in well, value normalized to the well's initial reading; for impact on MC3T3 growth (result in words): peptide or control adsorbed to surface, compared with uncoated surface or controls; for Abs at 590 nm (relative oxygen consumption), Controls: 25 µl stock of ECM or known peptide control dried in well, same plate
Description: To identify peptides in a particular library which positively affected cell growth in cell culture, the library was screened in a growth assay. The selected cells were anchorage-dependent MC3T3 cells, which were grown on tissue culture surfaces which had been pre-coated with peptides of the present invention. The screening medium used to evaluate peptides in the library was a low serum medium allowing evaluation of peptide effects with low interference from undefined materials present in the medium. In the present work, growth of MC3T3 cells was assessed in the presence and absence of the peptides in the library which were present in the form of a dried film on a tissue culture substrate. Growth was evaluated in a basal medium rich in amino acids and containing the necessary vitamins, metals and simple carbon source. After an appropriate incubation time, growth of each peptide-supplemented culture is compared to growth of the unsupplemented culture. The extent of growth was evaluated using a Becton Dickinson oxygen sensor to detect oxygen consumption by the cells. The cell number in each well containing a particular peptide was then assessed indirectly with a flurometer which measured fluorescence generated from a fluoroescent dye using band-pass filters of 465 nm for excitation and 590 nm for emission.
Briefly, the oxygen biosensor is based upon the fluoroscence of ruthenium dye which is quenched in the presence of oxygen. The dye is immobilized within an inert but highly permeable silicone matrix located at the bottom of microtiter wells. […] (Wodnicka, M., Guarino, R. D., Hemperly, J. J. Temmins, M. R., Stitt, D. and Pitner, J. B. (2000) J. of Biomolecular Screening 5:141-152)
MC3T3-E1 is a clonal line of murine calvaria-derived osteoblast (establishement of a clonal osteogenic Cell Line from Newborn Mouse Calvaria in Jpn J. Oral Biol 23, 899 (1981)).
MC3T3 cells were maintained in αMEM (GIBCO Catalog No: 12561) supplemented with 2% fetal calf serum (FCS, inactivated) and 100 units or μg/ml of penicillin/streptomycin for one month prior to use. Cells were routinely seeded at a density of approximately 1×10^4 cells per 20 ml culture media which was placed in a 250 ml canted neck polystyrene tissue culture treated flask (Becton Dickinson). Cells were cultured until approximately 2×10^6 cells were obtainable from each flask, which were resuspended in 5 ml of αMEM with 2% FCS for a final cell concentration of about 5×10^4 cells per 150 μl for peptide screening.
For determining the biological effects of library peptides and appropriate controls on MC3T3 cells, cells (5×10^4/150 μl) were grown in an 96 well oxygen sensor plate treated as described below:
Peptides for screening were obtained from either a MDL-400 library or an MDL-100 library. Fifty microliters of peptides at a 1 mM stock concentration in phosphate buffered saline were placed in wells of a 96 well oxygen sensor plate and dried in a reverse flow air hood overnight […].
Vitrogen-collagen-I was obtained from Cohesion (Palo Alto, Calif., Catalog No. FXP-019) and fibronectin was obtained from Sigma (Catalog No. F-0895). All other extracellular matrix (ECM) compounds were obtained from Becton Dickinson Labware, (Bedford, Mass.). Polylysine was obtained from Becton Dickinson Labware and RGDSP-rhodamine was from AnaSpec Inc. (San Jose, Calif.). Extracellular matrix components (ECM) or known peptides were used at the following stock concentrations:
Twenty-five microliters of stock concentrations of controls and 25 μl of phosphate buffered saline were placed in wells of a 96 well oxygen sensor plate and dried overnight as described above.
Cells grown on 96 well oxygen sensor plates treated as described above were monitored for growth using a Becton Dickinson oxygen biosensor. Growth was monitored at the following time points: 1 hours, 24 hours, 32 hours, 48 hours and 86 hours. Media was changed every three days. […]

Row | Molecule | Abs at 590 nm (relative oxygen consumption), MDL-400 Library | impact on MC3T3 growth (result in words) | Abs at 590 nm (relative oxygen consumption), Controls | also measured
1 | AFFKI (Synthetic peptide selected for biological activity) [SEQ ID NO:6] | 2.01* | significant difference in growth | – | –
2 | AFKIF (Synthetic peptide selected for biological activity) [SEQ ID NO:9] | 2.78* | significant difference in growth | – | relative oxygen consumption (Absorbance at 590 nm): 2.78
3 | AKIFF (Synthetic peptide selected for biological activity) [SEQ ID NO:8] | 2.08* | significant difference in growth | – | –
4 | Collagen-IV: extracellular matrix (ECM) control from Becton Dickinson Labware [reference compound] | – | – | 3.14 | relative oxygen consumption (Absorbance at 590 nm): 3.14
5 | Collagen-V: extracellular matrix (ECM) control from Becton Dickinson Labware [reference compound] | – | – | 1.76 | –
6 | FAKFI (Synthetic peptide selected for biological activity) [SEQ ID NO:11] | 2.06* | significant difference in growth | – | –
7 | FIFAK (Synthetic peptide selected for biological activity) [SEQ ID NO:3] | 2.08* | significant difference in growth | – | –
8 | FIKFG (Synthetic peptide selected for biological activity) [SEQ ID NO:2] | 2.38* | significant difference in growth | – | impact on MC3T3 growth (result in words) (listed as FIKFG): positive
9 | Fibronectin [reference compound] | – | – | 2.12 | –
10 | IFFKG (Synthetic peptide selected for biological activity) [SEQ ID NO:1] | 2.53* | significant difference in growth | – | relative oxygen consumption (Absorbance at 590 nm): 2.53; impact on MC3T3 growth (result in words) (listed as IFFKG): positive
11 | KFAFI (Synthetic peptide selected for biological activity) [SEQ ID NO:10] | 2.11* | significant difference in growth | – | –
12 | Laminin [reference compound] | – | – | 2.65 | relative oxygen consumption (Absorbance at 590 nm): 2.65
13 | Polylysine [reference compound] | – | – | 1.08 | –
14 | QVVAK (Synthetic peptide selected for biological activity) [SEQ ID NO:4] | 2.11* | significant difference in growth | – | –
15 | RGDSP-rhodamine [reference compound] | – | – | 1.25 | –
16 | VFPFK (Synthetic peptide selected for biological activity) [SEQ ID NO:7] | 2.06* | significant difference in growth | – | –
17 | B1 | – | – | 1.45 | –
